{"source": "patent US20240294499A1", "about": "“TARGETED PROTEIN DEGRADATION USING BIFUNCTIONAL COMPOUNDS THAT BIND UBIQUITIN LIGASE AND TARGET MCL-1 PROTEIN” (Captor Therapeutics S.A., priority 2021, published 2024)", "key": {"[1]": {"molecular_target": "T1, [MCL-1]-[compound of formula (I)]-[CRBN/DDB1] complex (Homo sapiens, UniProt Q07820+Q96SW2)", "T1 sequence (Q07820 whole entry)": "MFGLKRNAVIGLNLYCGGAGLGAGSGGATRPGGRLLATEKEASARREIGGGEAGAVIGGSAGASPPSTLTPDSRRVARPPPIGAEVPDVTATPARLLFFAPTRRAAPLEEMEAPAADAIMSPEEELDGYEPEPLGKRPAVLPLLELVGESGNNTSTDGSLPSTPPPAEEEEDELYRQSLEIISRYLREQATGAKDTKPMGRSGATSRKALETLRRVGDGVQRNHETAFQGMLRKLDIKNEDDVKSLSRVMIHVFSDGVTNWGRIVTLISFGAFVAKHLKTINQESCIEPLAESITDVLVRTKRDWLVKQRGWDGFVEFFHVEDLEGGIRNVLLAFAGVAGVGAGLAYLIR", "T1 sequence (Q96SW2 whole entry)": "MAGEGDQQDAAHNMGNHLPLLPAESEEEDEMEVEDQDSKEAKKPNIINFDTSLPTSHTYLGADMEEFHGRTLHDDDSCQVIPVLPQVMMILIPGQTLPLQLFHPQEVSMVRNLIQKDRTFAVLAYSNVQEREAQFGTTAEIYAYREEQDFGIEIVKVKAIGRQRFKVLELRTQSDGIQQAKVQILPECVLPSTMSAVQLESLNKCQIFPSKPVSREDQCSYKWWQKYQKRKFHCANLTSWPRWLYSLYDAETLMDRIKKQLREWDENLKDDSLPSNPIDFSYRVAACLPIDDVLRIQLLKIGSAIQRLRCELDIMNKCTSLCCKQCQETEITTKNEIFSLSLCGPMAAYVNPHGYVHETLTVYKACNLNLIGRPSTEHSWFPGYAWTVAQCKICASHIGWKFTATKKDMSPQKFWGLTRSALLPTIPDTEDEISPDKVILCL", "T1 sequence (Q16531 whole entry partner)": "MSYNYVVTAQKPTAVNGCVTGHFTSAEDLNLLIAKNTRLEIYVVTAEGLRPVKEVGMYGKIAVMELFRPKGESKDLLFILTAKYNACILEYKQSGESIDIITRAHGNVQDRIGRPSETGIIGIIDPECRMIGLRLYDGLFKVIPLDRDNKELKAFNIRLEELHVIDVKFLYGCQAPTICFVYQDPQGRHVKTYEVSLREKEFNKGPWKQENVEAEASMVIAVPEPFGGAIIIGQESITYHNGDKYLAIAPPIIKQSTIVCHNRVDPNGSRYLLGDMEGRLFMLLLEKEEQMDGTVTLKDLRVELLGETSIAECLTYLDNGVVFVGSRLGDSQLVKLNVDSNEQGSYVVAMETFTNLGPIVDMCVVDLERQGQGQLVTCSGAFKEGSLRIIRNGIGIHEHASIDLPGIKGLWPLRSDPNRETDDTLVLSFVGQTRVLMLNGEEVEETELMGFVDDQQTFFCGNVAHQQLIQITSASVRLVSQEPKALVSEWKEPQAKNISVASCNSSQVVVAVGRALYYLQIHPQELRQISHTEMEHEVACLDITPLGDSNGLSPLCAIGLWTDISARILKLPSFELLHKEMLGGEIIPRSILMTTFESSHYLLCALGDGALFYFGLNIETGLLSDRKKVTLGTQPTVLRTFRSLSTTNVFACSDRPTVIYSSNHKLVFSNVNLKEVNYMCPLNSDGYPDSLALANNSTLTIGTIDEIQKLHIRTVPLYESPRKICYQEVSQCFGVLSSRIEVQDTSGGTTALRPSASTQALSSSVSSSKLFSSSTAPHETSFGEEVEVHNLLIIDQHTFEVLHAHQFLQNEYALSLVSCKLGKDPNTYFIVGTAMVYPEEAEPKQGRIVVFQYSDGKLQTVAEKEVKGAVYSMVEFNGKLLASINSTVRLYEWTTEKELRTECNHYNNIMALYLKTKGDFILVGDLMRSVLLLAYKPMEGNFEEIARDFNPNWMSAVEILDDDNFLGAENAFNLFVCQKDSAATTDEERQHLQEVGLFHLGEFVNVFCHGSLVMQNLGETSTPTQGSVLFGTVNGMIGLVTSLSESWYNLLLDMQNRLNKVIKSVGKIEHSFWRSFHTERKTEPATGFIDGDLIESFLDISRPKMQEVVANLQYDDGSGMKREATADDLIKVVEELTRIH", "assay": "HTRF ternary complex assay", "format": "binding", "conditions": "ternary complex formation; read-out: HTRF ternary complex Average pEC50 by molecule (converted)", "procedure": "The effect of the bifunctional compounds of the invention on the formation of a ternary complex composed of [MCL-1]-[compound of formula (I)]-[CRBN/DDB1] was investigated.\nMix of protein solution were prepared: • 48 nM hMcl-1 and 105.6 nM CRBN was prepared in PPI Europium detection buffer with 2 mM DTT. • Acceptor and donor stock solutions were diluted 100 times in PPI Europium detection buffer. Equal volumes of both reagents were mixed. Finally giving 3 nM of Streptavidin-Eu cryptate […] and 6.67 nM of Anti-6× his-d2 […].\n5 μl of protein mix was dispensed to all wells. The tested compounds in dose-response were dispensed onto a white 384-well low volume plate (Greiner, 784075). DMSO was backfilled to all wells, resulting in a final DMSO content of 0.5%. Wells containing only DMSO served as background. Next, 5 μl of solution with donor and acceptor was added to the wells.\nThe plate was sealed with transparent film and shaken using a VibroTurbulator for 60 see at level 3. The plate was then spun down shortly (10 s, 1000 rcf) and incubated at 25° C. for 180 min.\nThe read-out was performed with plate reader (Pherastar, BMG Labtech) in time resolved fluorescence mode. Filterset: TR 337 665 620.\nThe results were analyzed as follows: • 1) an average of fluorescence for background signal was calculated and used as a negative control; • 2) raw fluorescence values for tested compounds were normalized against negative controls; • 3) bell shape curve was fitted to a gaussian distribution using a non-linear least squares Gauss-Newton algorithm; • 4) EC50 and pEC50 values were determined."}, "[2]": {"molecular_target": "T1, [MCL-1]-[compound of formula (I)]-[CRBN/DDB1] complex", "assay": "AlphaLISA dose response ternary complex formation assay", "format": "binding", "conditions": "read-out: AlphaLISA dose response Average pEC50 by molecule (converted)", "summary_of_the_method": "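EC50 comes from dose–response of AlphaLISA luminescence (excitation 680, emission 615 nm), normalised between DMSO background and an internal positive control, with concentrations past the hook point dropped. Ternary complex formed by mixing bead-bound biotin-hMCL-1 and His-CRBN/DDB1 (protein solutions 40 and 200 nM) with compound in 2% DMSO, 30 min, 25 °C.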"}, "ARH-77 cells": {"tested_on": "ARH-77 cells", "assay": "Cell viability assay (CellTiter-Glo), ARH-77", "format": "cell-based", "conditions": "Homo sapiens, ARH-77, 24 hours incubation, 1% FBS, read-out: Average pIC50 by molecule ARH-77 (converted)", "excerpt": "The effect of various compounds of the invention on the viability of OPM-2, MV-4-11 and ARH-77 cell lines was investigated, using the CTG protocol described below.\nOPM-2 and MV-4-11 cell lines are derived from multiple myeloma and acute myeloid leukaemia, respectively. Both cell lines are described in the literature as MCL-1 dependent lines, as opposed to lymphoblast-like ARH-77 cell line, which is described as independent of MCL-1 (Tron A E et al. Nat Commun. 2018; 9: 5341; Caenepeel S et al. Cancer Discov. 2018 December; 8(12):1582-1597).\nCells (OPM-2, MV-4-11 or ARH-77) were seeded on […] in a growth medium with FBS reduced to 1%. Next, compound stocks were pre-diluted in DMSO and added directly to the cells growth medium (final DMSO concentration: 0.5%). Compound concentrations used in this assay: 1/3 dilutions starting at 30 uM (9 to 12 points).\nAfter 24 hours of incubation, cell viability was evaluated using CellTiter-Glo Luminescent Cell Viability Assay (Promega, cat #G7572). Luminescence signal was measured using a CLARIOstar Plus Multi-Mode Microplate Reader (574-590 nm).\nResults were normalized to DMSO control."}, "MV-4-11 cells": {"tested_on": "MV-4-11 cells", "assay": "Cell viability assay (CellTiter-Glo), MV-4-11", "format": "cell-based", "conditions": "Homo sapiens, MV4-11, 24 hours incubation, 1% FBS, read-out: Average pIC50 by molecule MV-4-11 (converted)", "summary_of_the_method": "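Luminescent ATP readout (CellTiter-Glo) at 24 hours measured viability, expressed relative to DMSO-treated wells. Compound was added directly to the medium as a 9–12-point threefold series starting at 30 uM, at 0.5% final DMSO. The medium contained FBS reduced to 1%.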"}}, "data": [{"compound": "Cc1nn(C)c(C)c1-c1c(Cl)ccc2c(CCCOc3cccc4cc(F)ccc34)c(C(=O)O)n(CCN3CC4(C3)CN(C(=O)COc3cccc5c3CN(C3CCC(=O)NC3=O)C5=O)C4)c12", "note": "(centres unmarked) [Compound 303]", "values": [{"measurement": "EC50", "setting": "[1]", "value": "< 0.1", "unit": "µM"}]}, {"compound": "Cc1nn(C)c(C)c1-c1c(Cl)ccc2c(CCCOc3cccc4cc(F)ccc34)c(C(=O)O)n(CCN3CC4(CCCN(C(=O)COc5cccc6c5CN(C5CCC(=O)NC5=O)C6=O)C4)C3)c12", "note": "(centres unmarked) [Compound 304, 6-Chloro-1-(2-(6-(2-((2-(2,6-dioxopiperidin-3-yl)-1-oxoisoindolin-4-yl)oxy)acetyl)-2,6-diazaspiro[3.5]nonan-2-yl)ethyl)-3-(3-((6-fluoronaphthalen-1-yl)oxy)propyl)-7-(1,3,5-trimethyl-1H-pyrazol-4-yl)-1H-indole-2-carboxylic acid]", "values": [{"measurement": "EC50", "setting": "[1]", "value": "< 0.1", "unit": "µM"}]}, {"compound": "Cc1nc2cc(OCC(=O)N3CCN(CCn4c(C(=O)O)c(CCCOc5cccc6cc(F)ccc56)c5ccc(Cl)c(-c6c(C)nn(C)c6C)c54)CC3)ccc2cc1C1CCC(=O)NC1=O", "note": "(centres unmarked) [Compound 288, 6-Chloro-1-(2-(4-(2-((3-(2,6-dioxopiperidin-3-yl)-2-methylquinolin-7-yl)oxy)acetyl)piperazin-1-yl)ethyl)-3-(3-((6-fluoronaphthalen-1-yl)oxy)propyl)-7-(1,3,5-trimethyl-1H-pyrazol-4-yl)-1H-indole-2-carboxylic acid]", "values": [{"measurement": "EC50", "setting": "[1]", "value": "< 0.1", "unit": "µM"}]}, {"compound": "Cc1noc(C)c1-c1c(Cl)ccc2c(CCCOc3cccc4cc(F)ccc34)c(C(=O)O)n(CCN3CCN(C(=O)COc4cccc5c4CN(C4CCC(=O)NC4=O)C5=O)CC3)c12", "note": "(centres unmarked) [Compound 347, 6-Chloro-7-(3,5-dimethylisoxazol-4-yl)-1-(2-(4-(2-((2-(2,6-dioxopiperidin-3-yl)-1-oxoisoindolin-4-yl)oxy)acetyl)piperazin-1-yl)ethyl)-3-(3-((6-fluoronaphthalen-1-yl)oxy)propyl)-1H-indole-2-carboxylic acid]", "values": [{"measurement": "EC50", "setting": "[1]", "value": "< 0.1", "unit": "µM"}]}, {"compound": "Cc1nn(C)c(C)c1-c1c(Cl)ccc2c(CCCOc3cccc4cc(F)ccc34)c(C(=O)O)n(CCN3CC4(CCN(C(=O)COc5cccc6c5CN(C5CCC(=O)NC5=O)C6=O)CC4)C3)c12", "note": "(centres unmarked) [Compound 302, 6-Chloro-1-(2-(7-(2-((2-(2,6-dioxopiperidin-3-yl)-1-oxoisoindolin-4-yl)oxy)acetyl)-2,7-diazaspiro[3.5]nonan-2-yl)ethyl)-3-(3-((6-fluoronaphthalen-1-yl)oxy)propyl)-7-(1,3,5-trimethyl-1H-pyrazol-4-yl)-1H-indole-2-carboxylic acid]", "values": [{"measurement": "EC50", "setting": "[1]", "value": "< 0.01", "unit": "µM"}]}, {"compound": "Cc1nn(C)c(C)c1-c1c(Cl)ccc2c(CCCOc3cccc4cc(F)ccc34)c(C(=O)O)n(CCN3CCN(C(=O)C(C)(C)Oc4cccc5c4CN(C4CCC(=O)NC4=O)C5=O)CC3)c12", "note": "(centres unmarked) [Compound 311, 6-Chloro-1-{2-[4-(2-{[2-(2,6-dioxopiperidin-3-yl)-1-oxo-2,3-dihydro-1H-isoindol-4-yl]oxy}-2-methylpropanoyl)piperazin-1-yl]ethyl}-3-{3-[(6-fluoronaphthalen-1-yl)oxy]propyl}-7-(1,3,5-trimethyl-1H-pyrazol-4-yl)-1H-indole-2-carboxylic acid]", "values": [{"measurement": "EC50", "setting": "[1]", "value": "< 0.1", "unit": "µM"}]}, {"compound": "Cc1nc2ccc(C(=O)N3CCN(CCn4c(C(=O)O)c(CCCOc5cccc6cc(F)ccc56)c5ccc(Cl)c(-c6c(C)nn(C)c6C)c54)CC3)cc2cc1C1CCC(=O)NC1=O", "note": "(centres unmarked) [Compound 290, 6-Chloro-1-(2-(4-(3-(2,6-dioxopiperidin-3-yl)-2-methylquinoline-6-carbonyl)piperazin-1-yl)ethyl)-3-(3-((6-fluoronaphthalen-1-yl)oxy)propyl)-7-(1,3,5-trimethyl-1H-pyrazol-4-yl)-1H-indole-2-carboxylic acid]", "values": [{"measurement": "EC50", "setting": "[1]", "value": "< 0.01", "unit": "µM"}]}, {"compound": "Cc1nn(C)c(C)c1-c1c(Cl)ccc2c(CCCOc3cccc4cc(F)ccc34)c(C(=O)O)n(CCN3CCN(C(=O)[C@@H](C)Oc4cccc5c4C(=O)N(C4CCC(=O)NC4=O)C5=O)CC3)c12", "note": "(stereo partly drawn) [Compound 315, 6-Chloro-1-(2-{4-[(2R)-2-{[2-(2,6-dioxopiperidin-3-yl)-1,3-dioxo-2,3-dihydro-1H-isoindol-4-yl]oxy}propanoyl]piperazin-1-yl}ethyl)-3-{3-[(6-fluoronaphthalen-1-yl)oxy]propyl}-7-(1,3,5-trimethyl-1H-pyrazol-4-yl)-1H-indole-2-carboxylic acid]", "values": [{"measurement": "EC50", "setting": "[2]", "value": "< 0.1", "unit": "µM"}, {"measurement": "IC50", "setting": "ARH-77 cells", "value": "> 3.16", "unit": "µM"}, {"measurement": "IC50", "setting": "MV-4-11 cells", "value": "≤ 0.0316", "unit": "µM"}]}, {"compound": "Cc1nn(C)c(C)c1-c1c(Cl)ccc2c(CCCOc3cccc4cc(F)ccc34)c(C(=O)O)n(CCN3CCN(C(=O)CSc4cccc5c4CN(C4CCC(=O)NC4=O)C5=O)CC3)c12", "note": "(centres unmarked) [Compound 322, 6-Chloro-1-(2-(4-(2-((2-(2,6-dioxopiperidin-3-yl)-1-oxoisoindolin-4-yl)thio)acetyl)piperazin-1-yl)ethyl)-3-(3-((6-fluoronaphthalen-1-yl)oxy)propyl)-7-(1,3,5-trimethyl-1H-pyrazol-4-yl)-1H-indole-2-carboxylic acid]", "values": [{"measurement": "EC50", "setting": "[1]", "value": "< 0.1", "unit": "µM"}]}, {"compound": "Cc1nn(C)c(C)c1-c1c(Cl)ccc2c(CCCOc3cccc4cc(F)ccc34)c(C(=O)O)n(CCN3CCC4CN(C(=O)CNc5cccc6c5C(=O)N(C5CCC(=O)NC5=O)C6=O)CC43)c12", "note": "(centres unmarked) [Compound 300, 6-Chloro-1-(2-(5-((2-(2,6-dioxopiperidin-3-yl)-1,3-dioxoisoindolin-4-yl)glycyl)hexahydropyrrolo[3,4-b]pyrrol-1(2H)-yl)ethyl)-3-(3-((6-fluoronaphthalen-1-yl)oxy)propyl)-7-(1,3,5-trimethyl-1H-pyrazol-4-yl)-1H-indole-2-carboxylic acid]", "values": [{"measurement": "EC50", "setting": "[2]", "value": "< 0.01", "unit": "µM"}, {"measurement": "IC50", "setting": "ARH-77 cells", "value": "> 3.16", "unit": "µM"}, {"measurement": "IC50", "setting": "MV-4-11 cells", "value": "≤ 0.1", "unit": "µM"}]}, {"compound": "Cc1nn2c(c1-c1c(F)ccc3c(CCCOc4cccc5cc(F)ccc45)c(C(=O)O)n(CCN4CCN(C(=O)COc5cccc6c5CN(C5CCC(=O)NC5=O)C6=O)CC4)c13)COCC2", "note": "(centres unmarked) [Compound 226, 1-{2-[4-(2-{[2-(2,6-dioxopiperidin-3-yl)-1-oxo-2,3-dihydro-1H-isoindol-4-yl]oxy}acetyl)piperazin-1-yl]ethyl}-6-fluoro-3-{3-[(6-fluoronaphthalen-1-yl)oxy]propyl}-7-{2-methyl-4H,6H,7H-pyrazolo[3,2-c][1,4]oxazin-3-yl}-1H-indole-2-carboxylic acid]", "values": [{"measurement": "EC50", "setting": "[2]", "value": "< 0.1", "unit": "µM"}, {"measurement": "IC50", "setting": "ARH-77 cells", "value": "> 10", "unit": "µM"}, {"measurement": "IC50", "setting": "MV-4-11 cells", "value": "≤ 0.1", "unit": "µM"}]}, {"compound": "Cc1nn(C)c(C)c1-c1c(Cl)ccc2c(CCCOc3cccc4ccccc34)c(C(=O)O)n(CCN3CCN(C(=O)COc4cccc5c4CN(C4CCC(=O)NC4=O)C5=O)CC34CC4)c12", "note": "(centres unmarked) [Compound 292, 6-Chloro-1-(2-(7-(2-((2-(2,6-dioxopiperidin-3-yl)-1-oxoisoindolin-4-yl)oxy)acetyl)-4,7-diazaspiro[2.5]octan-4-yl)ethyl)-3-(3-(naphthalen-1-yloxy)propyl)-7-(1,3,5-trimethyl-1H-pyrazol-4-yl)-1H-indole-2-carboxylic acid]", "values": [{"measurement": "EC50", "setting": "[2]", "value": "< 0.01", "unit": "µM"}, {"measurement": "IC50", "setting": "ARH-77 cells", "value": "> 10", "unit": "µM"}, {"measurement": "IC50", "setting": "MV-4-11 cells", "value": "≤ 0.1", "unit": "µM"}]}, {"compound": "Cc1nn2c(c1-c1c(F)ccc3c(CCCOc4cccc5cc(F)ccc45)c(C(=O)O)n(CCN4CCN(C(=O)COc5cccc6c5CN(C5CCC(=O)NC5=O)C6=O)CC4)c13)OCC2", "note": "(centres unmarked) [Compound 351, 1-{2-[4-(2-{[2-(2,6-dioxopiperidin-3-yl)-1-oxo-2,3-dihydro-1H-isoindol-4-yl]oxy}acetyl)piperazin-1-yl]ethyl}-6-fluoro-3-{3-[(6-fluoronaphthalen-1-yl)oxy]propyl}-7-{6-methyl-2H,3H-pyrazolo[3,2-b][1,3]oxazol-7-yl}-1H-indole-2-carboxylic acid]", "values": [{"measurement": "EC50", "setting": "[2]", "value": "< 0.01", "unit": "µM"}, {"measurement": "IC50", "setting": "ARH-77 cells", "value": "> 31.6", "unit": "µM"}, {"measurement": "IC50", "setting": "MV-4-11 cells", "value": "≤ 0.316", "unit": "µM"}]}]}
